Reference: patent US20080317883A1, “METHODS FOR TREATING DEPRESSION” (priority 2006, published 2008)
Like-named read-outs stand apart in the source and are kept apart here.

What was measured:
submissive rats [1] = assay: Reduction of Submissive Behavior Model (RSBM) of depression, dominant-submissive rat food competition test; type: in vivo, Sprague-Dawley rats
From the text: (§1) In this study, the effects of COMPOUND #7 on dominant or submissive behavior in pairs of rats competing for food are examined. It has been shown that anti-manic drugs, including anticonvulsants, decrease dominance and antidepressant drugs reduce submissiveness. This model uses dominant behavior as a model of mania and submissive behavior as a model of depression. The dominance and submissiveness is defined in a competition test and measured as the relative success of two food-restricted rats to gain access to a feeder. Rats are randomly paired and placed in an apparatus allowing them to compete for a food reward. The dominant-submissive relationship develops over a 2-week period. The submissive or dominant animals in pairs selected after 2 weeks of training were treated orally […] (b.i.d.) with COMPOUND #7 at 3 or 30 mg/kg for 5 weeks. The partner of the drug-treated animal was treated with vehicle.
(§2) The objective of this study was to determine if COMPOUND #7 active in the Reduction of Submissive Behavior Model (RSBM) of depression and the Reduction of Dominant Behavior Model (RDBM) of mania. Measurements were made at two doses (3 and 30 mg/kg) after oral twice a day (b.i.d.) administration. The effect of the drug in the RSBM was compared to the effect of fluoxetine (10 mg/kg) and vehicle (0.5% methylcellulose). The effect of the drug in the RDBM was compared with the effect of lithium (100 mg/kg) and vehicle (0.5% methylcellulose). The endpoints measured were the development of a significant reduction of submissive or dominant behavior and its time of onset.
The DSR developed by two rats competing for food uses the apparatus in FIG. 1. The methodology and equipment are described in several publications; (See: Malatynska E, Goldenberg R, Shuck L, Haque A, Zamecki P, Crites G, Schindler N, Knapp R J. Reduction of submissive behavior in rats: a test for antidepressant drug activity. Pharmacology 2002; 64:8; Malatynska E, Rapp R, Crites G. Dominant behavior measured in a competition test as a model of mania. In: International Behavioral Neuroscience Society Meeting, ed. IBNSCapri, Italy, 2002, p 26; Carpenter L L, Leon Z, Yasmin S, Price L H. Do obese depressed patients respond to topiramate? A retrospective chart review. J Affect Disord 2002; 69:251; McElroy S L, Zarate C A, Cookson J, Suppes T, Huffman R F, Greene P, Ascher J. A 52-week, open-label continuation study of lamotrigine in the treatment of bipolar depression. J Clin Psychiatry 2004; 65:204; Bonnet U. Moclobemide: therapeutic use and clinical studies. CNS Drug Rev 2003; 9:97; Danysz W, Plaznik A, Kostowski W, Malatynska E, Jarbe T U, Hiltunen A J, Archer T. Comparison of desipramine, amitriptyline, zimeldine and alaproclate in six animal models used to investigate antidepressant drugs. Pharmacol Toxicol 1988; 62:42; Knapp R J, Goldenberg R, Shuck C, Cecil A, Watkins J, Miller C, Crites G, Malatynska E. Antidepressant activity of memory-enhancing drugs in the reduction of submissive behavior model. Eur J Pharmacol 2002; 440:27; Kostowski W, Malatynska E, Plaznik A, Dyr W, Danysz W. Comparative studies on antidepressant action of alprazolam in different animal models. Pol J Pharmacol Pharm 1986; 38, 471 and Malatynska E, De Leon I, Allen D, Yamamura H I. Effects of amitriptyline on GABA-stimulated ^36Cl^− uptake in relation to a behavioral model of depression. Brain Res Bull 1995; 37:53) In the experiments described in this report Sprague-Dawley rats weighing 160 to 180 g were used. […]

dominant rats [2] = assay: Reduction of Dominant Behavior Model (RDBM) of mania, dominant-submissive rat food competition test; type: in vivo, Sprague-Dawley rats
From the text: as §1, §2
The DSR developed by two rats competing for food uses the apparatus in FIG. 1. The methodology and equipment are described in several publications; (See: Malatynska E, Goldenberg R, Shuck L, Haque A, Zamecki P, Crites G, Schindler N, Knapp R J. Reduction of submissive behavior in rats: a test for antidepressant drug activity. Pharmacology 2002; 64:8; Malatynska E, Rapp R, Crites G. Dominant behavior measured in a competition test as a model of mania. In: International Behavioral Neuroscience Society Meeting, ed. IBNSCapri, Italy, 2002, p 26; Carpenter L L, Leon Z, Yasmin S, Price L H. Do obese depressed patients respond to topiramate? A retrospective chart review. J Affect Disord 2002; 69:251; McElroy S L, Zarate C A, Cookson J, Suppes T, Huffman R F, Greene P, Ascher J. A 52-week, open-label continuation study of lamotrigine in the treatment of bipolar depression. J Clin Psychiatry 2004; 65:204; Bonnet U. Moclobemide: therapeutic use and clinical studies. CNS Drug Rev 2003; 9:97; Danysz W, Plaznik A, Kostowski W, Malatynska E, Jarbe T U, Hiltunen A J, Archer T. Comparison of desipramine, amitriptyline, zimeldine and alaproclate in six animal models used to investigate antidepressant drugs. […]

Male CF-1 mice = assay: Forced swimming test in mice (behavioral despair); type: in vivo; details: 1 h before test; for reduction in immobility: 4-minute test period
From the text: Porsolt (1977) proposed a model for screening antidepressants in mice, called the “behavioral despair” test. (See, Porsolt, R D et al. Behavioral despair in mice: A preliminary screening test for antidepressants. Arch Int Pharmacodyn Ther 229; 327-336:1977 and Porsolt, R D et al. Behavioral despair in rats: a new model sensitive to antidepressant treatments, Eur. J. Pharmacol., 47, 379-391, 1978). This test is also called the forced swim test In this test, a mouse is placed in a container of water and swims, apparently trying to escape. The animal then alternates periods of swimming and floating, i.e., remaining immobile. Antidepressants are among those drugs that reduce the periods of immobility. In the present report COMPOUND #7 was tested in the forced swimming procedure in mice to determine whether the compound had any potential antidepressant activity.
Male CF-1 mice (18-22 g) were purchased from Charles River Breeding Laboratories, Kingston, N.Y. Animals were housed in standing wire cages with free access to food and water. Experiments were initiated only after an acclimation period of at least 3 days to the animal room environment which consisted of automatically controlled illumination with a 12-hour light/dark cycle and controlled temperature and relative humidity.
COMPOUND #7 was dissolved in 30% polyethylene glycol 400 in deionized water and administered to animals by oral gavage in a volume of 0.1 ml/10 g body weight.
The method was similar to that described by Porsolt et al. (1977)1 with minor modifications (See, Porsolt R D, Bertin A, Jalfre M. Behavioral despair in mice: A preliminary screening test for antidepressants. Arch Int Pharmacodyn Ther 229; 327-336:1977)
Mice were pre-swum the day before the test for 5 minutes. On the test day, mice were dosed orally with either test compound or vehicle. One hour later each animal was placed in a glass cylinder (1000-ml beaker; height 14 cm, diameter 11.5 cm) containing water up to a height of 9 cm (water temperature at 25° C.). Following a 2-minute pretest, immobility of each mouse was recorded for a 4-minute test period. Immobility was defined as the animal making only those movements to stay afloat, especially combined with lack of movement of its hind legs. Each group consisted of 8 mice.

Male NMRI mice = assay: Mouse tail suspension test (TST); type: in vivo
Procedure: The tail suspension test (TST) is an acute test which is predictive of anti-depressant activity of a test compound. (See, Steru, L. et al. Psychopharmacology, 85, 367-370, 1985)
Male NMRI mice (22-26 g; n=12 mice per dose) is given a single dose of vehicle (aqueous solution of 1 equivalent tartaric acid+0.45% NaCl+10% cyclodextrin, i.p.), imipramine (128 mg/kg, p.o. in an aqueous solution of 0.9% NaCl) or COMPOUND #7 (at 1, 3 AND 30 mg/kg, p.o.) 60 min prior to tail suspension. All substances were administered in a volume of […]. In this test, the mice are submitted to an unpleasant and inescapable situation (i.e. hanging by the tail) for 6 min. Once suspended, motor activity diminishes rapidly and the mice become immobile. A compound is considered active as an antidepressant in this model, when there is a reduction in immobility time. Viewpoint video-tracking software is utilized to record immobility time.

[3] = tested on: Male rats of Wistar (Han) strain; assay: Behavioral despair or forced swim test in the rat; type: in vivo; details: 4 hours and 60 minutes before the test, 5 minute test
From the text: The behavioral despair or forced swim test (FST) in rats as in mice (see Example 2) is an acute test of anti-depressant activity. Antidepressant-like compounds are known to be active in this assay (e.g., tricyclics, MAO inhibitors, SSRIs), although activity can vary with mouse strain differences, as would be known to one of skill in the art. (See, Porsolt, R D et al. Behavioral despair in rats: a new model sensitive to antidepressant treatments, Eur. J. Pharmacol., 47, 379-391, 1978) and also (see; Porsolt, R D et al. Behavioral despair in mice: A preliminary screening test for antidepressants. Arch Int Pharmacodyn Ther 229; 327-336:1977)
The assay procedure is as follows. Male rats of Wistar (Han) strain, 185-245 g body weight supplied by Elevage Janvier, 53940 Le Genest-Saint-Isle, France were used. These animals were administered 1, 3 and 30 mg/kg of COMPOUND #7 p.o. 24 hours, 4 hours and 60 minutes before the test. Active control animals were given imipramine 64 mg/kg under the same conditions. […] Imipramine at 64 mg/kg administered under the same experimental conditions decreased the duration of immobility by 44% as compared to vehicle.

dominant rats [4] = details: administered to dominant rats, literature; cited from earlier work
submissive rats [5] = details: literature, cited from earlier work
[6] = treatment of the submissive subject for 3 weeks

NC(=O)OC[C@@H](O)c1ccccc1Cl [COMPOUND #7]
effect on submissive rat behavior (time spent on feeder) (submissive rats [1]; 3 mg/kg b.i.d. p.o. for 5 weeks, submissive rat treated, partner vehicle): did not have any effect
onset of increased competitiveness of submissive rats (treatment time) (submissive rats [1]; 30 mg/kg b.i.d. p.o.): 1 week
effect on competitiveness of submissive rat (time spent on feeder, dominance level) (submissive rats [1]; 30 mg/kg b.i.d. p.o. for 5 weeks, vs vehicle-treated submissive rats): significantly increased competitiveness
onset of significant decrease of dominant rat performance (treatment time) (dominant rats [2]; 3 mg/kg b.i.d. p.o.): 3 weeks
effect on performance of dominant rats (time spent on feeder) (dominant rats [2]; 3 mg/kg b.i.d. p.o. for 5 weeks, dominant rat treated, partner vehicle): decreased the performance of dominant rats
onset of increased competitiveness of dominant rats (treatment time) (dominant rats [2]; 30 mg/kg b.i.d. p.o.): 2 weeks
effect on competitiveness of dominant rats (dominant rats [2]; 30 mg/kg b.i.d. p.o. for 5 weeks, vs vehicle treated dominant rats): significantly increased the competitiveness
reduction in immobility (Male CF-1 mice; 1 mg/kg oral): 25%
reduction in immobility (Male CF-1 mice; 3 mg/kg oral): 28%
reduction in immobility (Male CF-1 mice; 10 mg/kg oral): 43%
reduction in immobility (significance) (Male CF-1 mice; 17.3 mg/kg oral): not significant
reduction in immobility (significance) (Male CF-1 mice; 30 mg/kg oral): not significant
effect on duration of immobility (Male NMRI mice; 1, 3 and 30 mg/kg p.o. 60 minutes before the test): did not affect the duration of immobility
effect on duration of immobility ([3]; 1, 3 and 30 mg/kg p.o. 24 hours): did not affect the duration of immobility

CC(N)Cc1ccccc1 (stereo not shown) [amphetamine, reference compound]
effect on submissive behavior (submissive rats [1]; treatment of submissive rats, psychostimulant, unpublished observation): ineffective

NC(=O)N1c2ccccc2C=Cc2ccccc21 [carbamazepine]
effect on competitive behavior of dominant rats (dominant rats [4]): significantly reduced competitive behavior

Clc1cccc(Cl)c1N=C1NCCN1 [clonidine]
effect on competitive behavior of dominant rats (dominant rats [4]): significantly reduced competitive behavior

CNCCCN1c2ccccc2CCc2ccccc21 [desipramine]
effect on submissive behavior (submissive rats [5]; [6]): reduced submissive behavior

CN1C(=O)CN=C(c2ccccc2)c2cc(Cl)ccc21 [diazepam]
effect on submissive behavior (submissive rats [5]; treatment of submissive rats, anxiolytic): ineffective

CNCCC(Oc1ccc(C(F)(F)F)cc1)c1ccccc1 (stereo not shown) [fluoxetine, reference compound]
onset of significant effect in submissive rats (treatment time) (submissive rats [1]; 10 mg/kg i.p. once a day, previous experimental set): 3 weeks
effect on submissive behavior (submissive rats [5]; [6]): reduced submissive behavior

CN(C)CCCN1c2ccccc2CCc2ccccc21 [imipramine, reference compound]
decrease of duration of immobility as compared with control (Male NMRI mice; 128 mg/kg p.o. 60 minutes before the test): −69%
decrease of duration of immobility as compared to vehicle ([3]; 64 mg/kg p.o. 24 hours): 44%
effect on submissive behavior (submissive rats [5]; [6]): reduced submissive behavior

CCCC(CCC)C(=O)[O-].[Na+] [sodium valproate]
effect on competitive behavior of dominant rats (dominant rats [4]): significantly reduced competitive behavior
